Test results from US20060094676A1, “Compositions and methods for treating cancer using compositions comprising an inhibitor of endothelin receptor activity” (priority 2004, published 2006).

Key:
[1] = system: 7 melanoma lines; test: MTS assay, number of viable cells; format: cell-based; conditions: 100 μM BQ788; all 7 melanoma lines tested
[2] = system: kidney cells; test: MTS assay, number of viable cells; format: cell-based; conditions: high concentrations of BQ788
[3] = system: Me 191-I/GG (Primary) melanoma cells; test: MTS assay of cell viability after BQ788; format: cell-based; conditions: incubation with BQ788 for seven days; Primary line
Protocol: Cells were cultured on a matrigel matrix that was histologically examined after two weeks (A-F). While the primary melanoma cells remained on top of the gel only (A and B), a fraction of the Cut-met cells invaded the gel (C and D) and the LN-met cells invaded the matrix extensively (E and F). Cell lysates of the three lines were subjected to western blot analysis using an anti-ETRB Ab (G) and an anti-tubulin Ab (H). Untreated, control (vehicle treated), and BQ788 treated cells were subjected to MTS assay to quantify any reduction in cell number. The mean values were calculated and plotted (I) as the percentage of the vehicle treated value+/− SEM.
Human melanoma cell lines Me191-1/GG (Primary), Me 190/DA (Cut-met), Me 275/EP (LN-met) were obtained from the Ludwig Institute (Epalinges, Switzerland) and SK-MEL-28 was obtained from the American Tissue Culture Collection (ATCC). […] After removal of the inserts, MTS solution was added to the well to quantify the cells that migrated through the insert and were attached to the bottom of the well by measuring the OD at 492 nm (Promega). […]
To address the relationship between the level of progression of human melanoma and responsiveness to BQ788 treatment, 3 cell lines that had been grown in culture for a restricted number of passages were used. […] This effect was quantified using the MTS assay.

[4] = system: ETRB; test: Western blot of ETRB protein after BQ788; format: cell-based, human; conditions: SK-MEL-28 cells; 3, 5 and 7 days with BQ788
Excerpt: Real-time RT-PCR detection of ETRB transcripts (see legends FIG. 2) (A). ETRB protein expression compared to tubulin in SK-MEL-28 cells after 3, 5 and 7 days with (+) or without (−) BQ788 (B).
Samples were subjected to SDS-PAGE according to the method as described (Laemmli, Cleavage of structural proteins during the assembly of the head of bacteriophage T4, Nature, 227:680-685 (1970)). Proteins were blotted onto PVDF (Millipore) membranes and the filters were blocked with 5% non-fat dry milk. Immunostaining was preformed with anti-human endothelin receptor B antibody (Assay Designs, Inc.) (4 μg/ml) or anti-human Tubulin (Oncogene Research Products) (1 μg/ml) followed by incubation with a peroxidase conjugated goat anti rabbit secondary antibody (Sigma) (1:5000). Bands of 51 kd and 60 kd for ETRB (Hiraki, et al, Regular immunohistochemical localization of endothelin-1 and endothelin receptor B in normal, hyperplastic and neoplastic human adrenocortical cells, Pathol. Int., 47:117-125 (1997)) and tubulin respectively were detected using a chemiluminescent substrate kit (Interchim) according to the manufacturer's recommendations.

[5] = system: tumors derived from a human melanoma cell line grown in nude mice; test: Anti-CD31 immunohistochemistry of tumor sections (angiogenesis); format: in vivo; conditions: tumors injected with BQ788 vs vehicle
Protocol: Equal amounts of RNA from cells that were treated with BQ788 for 3 days were subjected to real-time RT-PCR analysis for the detection VEGF (A), HIF-1α (B) and Gravin (C) transcripts. Differences in expression levels are shown as x fold change and are statistically significant (p<0.05) unless a column in marked as non significant (N.S.). Sections of two representative tumors derived from a human melanoma cell line grown in nude mice and injected either with vehicle (D) or BQ788 (E) were stained with anti CD-31 to highlight blood vessels (brown staining, Lahav et al, 1999).
The relationship between the expression patterns of VEGF and GRAVIN is consistent with that observed in astrocytes, where GRAVIN down-regulates VEGF expression (Lee, et al., SSeCKS regulates angiogenesis and tight junction formation in blood-brain barrier, Nat. Med., 9:900-906 (2003)). In the present study we observed, at least for the most sensitive cell lines, LN-met and SK-MEL-28, that down-regulation of GRAVIN correlates with induction of VEGF. We therefore analyzed tissue sections of tumors derived from a human melanoma cell line grown in nude mice and injected with BQ788 for signs of changes in angiogenesis (Lahav, et al., An endothelin receptor B antagonist inhibits growth and induces cell death in human melanoma cells in vitro and in vivo, Proc. Natl. Acad. Sci. U.S.A., 96:11496-11500 (1999)).

What does the source list for `CCCC[C@@H](NC(=O)[C@@H](Cc1cn(C(=O)OC)c2ccccc12)NC(=O)[C@H](CC(C)(C)C)NC(=O)N1[C@H](C)CCC[C@@H]1C)C(=O)O` [BQ788, N-cis-2,6-dimethylpiperidinocarbonyl-L-γ-methylleucyl-D-1-methoxycarbonyltrptophanyl-D-norleucine]?
number of viable cells [1]: very significant loss; number of kidney cells [2]: not reduced; reduction in cell number [3]: 12%; ETRB protein levels [4]: reduced; angiogenesis in tumors (anti-CD31 staining) [5]: clear increase in angiogenesis
